For the assay, the target named is recombinant DYRK1A kinase (Homo sapiens, UniProt Q13627). Briefly: DYRK1A kinase assay (Ser/Thr 18 peptide Z-lyte FRET). In kind it is biochemical. Particulars: DYRK1A 0.25 μg/mL, ATP 15 μM, Ser/Thr peptide 18 4 μM, one hour at room temperature, 11-point dose-response from 10 μM. The method, then: Representative compounds were screened using the assay procedure for DYRK1A kinase activity as described below.
Each compound was dissolved in DMSO as a 10 mM stock and used to prepare compound source plates. Serial dilution (1:3, 11-point dose-response curves from 10 μM to 0.00016 μM) and compound transfer was performed using the ECHO 550 (Labcyte, Sunnyvale, CA) into 1536-well black-walled round bottom plates (Corning).
The DYRK1A kinase assay was run using the Ser/Thr 18 peptide Z-lyte assay kit according to manufacturer's instructions (Life Technologies—a Division of Thermo-Fisher). This is a non-radioactive assay using fluorescence resonance energy transfer (FRET) between coumarin and fluorescein to detect kinase activity which is represented as a ratio of coumarin emission/fluorescein emission.
Briefly, recombinant DYRK1A kinase, ATP and Ser/Thr peptide 18 were prepared in 1× Kinase buffer to final concentrations of 0.25 μg/mL, 15 μM, and 4 μM respectively. The mixture was allowed to incubate with the representative compounds for one hour at room temperature. All reactions were performed in duplicate. Unphosphorylated (“0% Control”) and phosphorylated (“100% control”) forms of Ser/Thr 18 served as control reactions. Additionally, an 11-point dose-response curve of Staurosporine (1 uM top) was run to serve as a positive compound control.
After incubation, Development Reagent A was diluted in Development Buffer then added to the reaction and allowed to further incubate for one hour at room temperature. The plate was read at Ex 400 Em 455 to detect the coumarin signal and Ex 400 Em 520 to measure the signal (EnVision Multilabel Plate Reader, PerkinElmer).
The Emission ratio (Em) was calculated as a ratio of the coumarin (C) emission signal (at 445 nm)/Fluorescein (F) emission signal (at 520 nm). The percent phosphorylation was then calculated using the following formula: [1−((Em ratio×F100%)−C100%)/((C0%−C100%)+(Em ratio×(F100%−F0%)))]. Dose-response curves were generated, and inhibitory concentration (IC50) values were calculated using non-linear regression curve fit in the Dotmatics' Studies Software (Bishops Stortford, UK).

As for `CNc1nc(N[C@@H]2CCN(C3COC3)CC2(F)F)nn2ccc(-c3ccc4nnn(CCF)c4n3)c12` [Compound 239, (R)—N^2-(3,3-Difluoro-1-(oxetan-3-yl)piperidin-4-yl)-5-(3-(2-fluoroethyl)-3H-[1,2,3]triazolo[4,5-b]pyridin-5-yl)-N^4-methylpyrrolo[2,1-f][1,2,4]triazine-2,4-diamine], the IC50 came out at 0.6 nM.
In the case of `Nc1nc(N[C@H]2CCN(C3COC3)C[C@H]2F)nn2cc(F)c(-c3ccc4nccn4n3)c12` [Compound 39, 6-Fluoro-N2-((3R,4S)-3-fluoro-1-(oxetan-3-yl)piperidin-4-yl)-5-(imidazo[1,2-b]pyridazin-6-yl)pyrrolo[2,1-f][1,2,4]triazine-2,4-diamine], the concentration for half-maximal inhibition (IC50) turned out to be 3.1 nM.
The figure for `CC(=O)N1CC[C@@H](Nc2nc(N)c3c(-c4ccc5nccn5n4)c(F)cn3n2)C(F)(F)C1` [Compound 41, (R)-1-(4-((4-Amino-6-fluoro-5-(imidazo[1,2-b]pyridazin-6-yl)pyrrolo[2,1-f][1,2,4]triazin-2-yl)amino)-3,3-difluoropiperidin-1-yl)ethan-1-one] is 2 nM.
As to `CC(=O)N1CC[C@H](Nc2nc(N)c3c(-c4ccc5nccn5n4)c(F)cn3n2)[C@H](F)C1` [Compound 38, 1-((3R,4S)-4-((4-Amino-6-fluoro-5-(imidazo[1,2-b]pyridazin-6-yl)pyrrolo [2,1-f][1,2,4]triazin-2-yl)amino)-3-fluoropiperidin-1-yl)ethan-1-one], the 50% inhibitory concentration (IC50) is 3.4 nM.
Take `COCCN1CC[C@H](Nc2nc(N)c3c(-c4ccc5ncn(CC(F)F)c5n4)ccn3n2)[C@H](F)C1` [Compound 121, 5-(3-(2,2-difluoroethyl)-3H-imidazo[4,5-b]pyridin-5-yl)-N^2-((3R,4S)-3-fluoro-1-(2-methoxyethyl)piperidin-4-yl)pyrrolo[2,1-f][1,2,4]triazine-2,4-diamine]: the half-inhibitory concentration (IC50) stood at 0.8 nM.
With `CNc1nc(N[C@H]2C[C@](C)(O)C2)nn2ccc(-c3ccc4ncn(CC(F)(F)F)c4n3)c12` [Compound 132, (1r,3r)-1-Methyl-3-((4-(methylamino)-5-(3-(2,2,2-trifluoroethyl)-3H-imidazo [4,5-b]pyridin-5-yl)pyrrolo[2,1-f][1,2,4]triazin-2-yl)amino)cyclobutan-1-ol], the IC50 is 1.2 nM.
As to `CNc1nc(N[C@@H]2CCN(C(=O)CO)CC2(F)F)nn2ccc(-c3ccc4nnn(CC(F)F)c4n3)c12` [Compound 276, (R)-1-(4-((5-(3-(2,2-Difluoroethyl)-3H-[1,2,3]triazolo[4,5-b]pyridin-5-yl)-4-(methylamino)pyrrolo[2,1-f][1,2,4]triazin-2-yl)amino)-3,3-difluoropiperidin-1-yl)-2-hydroxyethan-1-one], the half-maximal inhibitory concentration (IC50) is 1.2 nM.
For the molecule `CNc1nc(N[C@H]2CCN(C3COC3)C[C@H]2F)nn2ccc(-c3ccc4nnn(CCF)c4n3)c12` [Compound 236, N^2-((3R,4S)-3-fluoro-1-(oxetan-3-yl)piperidin-4-yl)-5-(3-(2-fluoroethyl)-3H-[1,2,3]triazolo[4,5-b]pyridin-5-yl)-N^4-methylpyrrolo[2,1-f][1,2,4]triazine-2,4-diamine], the IC50 was found to be 2.1 nM.
Consider `CNc1nc(N[C@H]2CCN(C)C[C@H]2F)nn2ccc(-c3ccc4nnn(CC(F)F)c4n3)c12` [Compound 273, 5-(3-(2,2-Difluoroethyl)-3H-[1,2,3]triazolo[4,5-b]pyridin-5-yl)-N^2-((3R,4S)-3-fluoro-1-methylpiperidin-4-yl)-N^4-methylpyrrolo[2,1-f][1,2,4]triazine-2,4-diamine], for which the IC50 stood at 2.7 nM.
The figure for `CNc1nc(N[C@H]2CCN(C(C)=O)C[C@H]2F)nn2cc(F)c(-c3ccc4nc(C)n(CCF)c4n3)c12` [Compound 163, 1-((3R,4S)-3-Fluoro-4-((6-fluoro-5-(3-(2-fluoroethyl)-2-methyl-3H-imidazo [4,5-b]pyridin-5-yl)-4-(methylamino)pyrrolo[2,1-f][1,2,4]triazin-2-yl)amino)piperidin-1-yl)ethan-1-one] is 1.3 nM; for `CNc1nc(N[C@H]2CC[C@](C)(O)CC2)nn2cc(F)c(-c3ccc4nnn(CCF)c4n3)c12` [Compound 248, (1r,4r)-4-((6-Fluoro-5-(3-(2-fluoroethyl)-3H-[1,2,3]triazolo[4,5-b]pyridin-5-yl)-4-(methylamino)pyrrolo[2,1-f][1,2,4]triazin-2-yl)amino)-1-methylcyclohexan-1-ol] it is 2 nM; for `Cc1nc2ccc(-c3c(F)cn4nc(N[C@H]5CC[C@](C)(O)CC5)nc(N)c34)nc2n1CCF` [Compound 143, (1r,4r)-4-((4-Amino-6-fluoro-5-(3-(2-fluoroethyl)-2-methyl-3H-imidazo[4,5-b]pyridin-5-yl)pyrrolo[2,1-f][1,2,4]triazin-2-yl)amino)-1-methylcyclohexan-1-ol] it is 1.3 nM.
Regarding `CC(=O)N1CC[C@H](Nc2nc(N)c3c(-c4ccc5ncn(CC(F)(F)F)c5n4)ccn3n2)[C@H](F)C1` [Compound 127, 1-((3R,4S)-4-((4-Amino-5-(3-(2,2,2-trifluoroethyl)-3H-imidazo[4,5-b]pyridin-5-yl)pyrrolo[2,1-f][1,2,4]triazin-2-yl)amino)-3-fluoropiperidin-1-yl)ethan-1-one], the IC50 came out at 1.5 nM.
For `COCCN1CC[C@H](Nc2nc(N)c3c(-c4ccc5ncn(CCF)c5n4)ccn3n2)[C@H](F)C1` [Compound 114, N^2-((3R,4S)-3-Fluoro-1-(2-methoxyethyl)piperidin-4-yl)-5-(3-(2-fluoroethyl)-3H-imidazo[4,5-b]pyridin-5-yl)pyrrolo[2,1-f][1,2,4]triazine-2,4-diamine], the IC50 amounted to 1.6 nM.
The figure for `CN1CC[C@@H](Nc2nc(N)c3c(-c4ccc5nnn(CC(F)F)c5n4)c(F)cn3n2)C(F)(F)C1` [Compound 261, (R)—N^2-(3,3-Difluoro-1-methylpiperidin-4-yl)-5-(3-(2,2-difluoroethyl)-3H-[1,2,3]triazolo[4,5-b]pyridin-5-yl)-6-fluoropyrrolo[2,1-f][1,2,4]triazine-2,4-diamine] is 0.6 nM; for `COCCN1CC[C@H](Nc2nc(N)c3c(-c4ccc5nnn(CC(F)F)c5n4)ccn3n2)[C@H](F)C1` [Compound 256, 5-(3-(2,2-Difluoroethyl)-3H-[1,2,3]triazolo[4,5-b]pyridin-5-yl)-N^2-((3R,4S)-3-fluoro-1-(2-methoxyethyl)piperidin-4-yl)pyrrolo[2,1-f][1,2,4]triazine-2,4-diamine] it is 3.5 nM; for `CCn1nnc2ccc(-c3c(F)cn4nc(N[C@@H]5CCN(C(C)=O)CC5(F)F)nc(NC)c34)nc21` [Compound 216, (R)-1-(4-((5-(3-Ethyl-3H-[1,2,3]triazolo[4,5-b]pyridin-5-yl)-6-fluoro-4-(methylamino)pyrrolo[2,1-f][1,2,4]triazin-2-yl)amino)-3,3-difluoropiperidin-1-yl)ethan-1-one] it is 2.6 nM.
In the case of `Nc1nc(N[C@H]2CCN(C3COC3)C[C@H]2F)nn2ccc(-c3ccc4ncn(CCF)c4n3)c12` [Compound 117, N^2-((3R,4S)-3-Fluoro-1-(oxetan-3-yl)piperidin-4-yl)-5-(3-(2-fluoroethyl)-3H-imidazo[4,5-b]pyridin-5-yl)pyrrolo[2,1-f][1,2,4]triazine-2,4-diamine], the half-maximal inhibitory concentration (IC50) was 0.9 nM.

For the origin of these results see patent US20250340575A1, “4-AMINOPYRROLO[2,1-F][1,2,4]TRIAZINES AND PREPARATION AND USES THEREOF” (Biosplice Therapeutics, Inc., priority 2024, published 2025).
